Tests used:
[1] = biological target: mTOR/GbL/Raptor (mTORC1) (Homo sapiens, UniProt P42345); assay: mTOR/GbL/Raptor (mTORC1) ELISA assay; assay type: biochemical; conditions: phosphorylation of 4E-BP1; 0.2 nM mTORC1, 10 μM ATP; read-out: IC50 in this assay (mTORC1 ELISA)
How it was run: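 ELISA read-out: phospho-4E-BP1 captured on Ni-chelate plates and detected with anti-phospho antibody plus HRP-anti-IgG luminescence. The kinase step ran 120 min at ambient temperature with 0.2 nM human mTORC1, 10 µM ATP, 50 nM His-4E-BP1, 10 mM MnCl2, pH 7.2 HEPES.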

[2] = biological target: PI3Kα (Homo sapiens, UniProt P42336); assay: PI3K biochemical assay (luciferase-luciferin ATP consumption); conditions: 1.5 nM enzyme, 1 μM ATP, 10 μM PIP2; read-out: IC50 for PI3Kα in this assay
Description: PI3Kα activity is measured as the percent of ATP consumed following the kinase reaction using luciferase-luciferin-coupled chemiluminescence. Reactions were conducted in 384-well white, medium binding microtiter plates (Greiner). Kinase reactions were initiated by combining test compounds, ATP, substrate (PIP2), and kinase in a 20 μL volume in a buffer solution. The standard PI3Kalpha assay buffer is composed 50 mM Tris, pH 7.5, 1 mM EGTA, 10 mM MgCl2, 1 mM DTT and 0.03% CHAPS. The standard assay concentrations for enzyme, ATP, and substrate are 1.5 nM, 1 μM, and 10 μM, respectively. The reaction mixture was incubated at ambient temperature for approximately 2 h. Following the kinase reaction, a 10 μL aliquot of luciferase-luciferin mix (Promega Kinase-Glo) was added and the chemiluminescence signal measured using a Victor2 plate reader (Perkin Elmer). Total ATP consumption was limited to 40-60% and IC50 values of control compounds correlate well with literature references. Substituting PI3Kα with PI3Kβ, PI3Kγ, or PI3Kδ, the inhibitory activity of the compounds for the other isoforms of I3K were measured.

Sequence of PI3Kα (P42336 whole entry, species assumed): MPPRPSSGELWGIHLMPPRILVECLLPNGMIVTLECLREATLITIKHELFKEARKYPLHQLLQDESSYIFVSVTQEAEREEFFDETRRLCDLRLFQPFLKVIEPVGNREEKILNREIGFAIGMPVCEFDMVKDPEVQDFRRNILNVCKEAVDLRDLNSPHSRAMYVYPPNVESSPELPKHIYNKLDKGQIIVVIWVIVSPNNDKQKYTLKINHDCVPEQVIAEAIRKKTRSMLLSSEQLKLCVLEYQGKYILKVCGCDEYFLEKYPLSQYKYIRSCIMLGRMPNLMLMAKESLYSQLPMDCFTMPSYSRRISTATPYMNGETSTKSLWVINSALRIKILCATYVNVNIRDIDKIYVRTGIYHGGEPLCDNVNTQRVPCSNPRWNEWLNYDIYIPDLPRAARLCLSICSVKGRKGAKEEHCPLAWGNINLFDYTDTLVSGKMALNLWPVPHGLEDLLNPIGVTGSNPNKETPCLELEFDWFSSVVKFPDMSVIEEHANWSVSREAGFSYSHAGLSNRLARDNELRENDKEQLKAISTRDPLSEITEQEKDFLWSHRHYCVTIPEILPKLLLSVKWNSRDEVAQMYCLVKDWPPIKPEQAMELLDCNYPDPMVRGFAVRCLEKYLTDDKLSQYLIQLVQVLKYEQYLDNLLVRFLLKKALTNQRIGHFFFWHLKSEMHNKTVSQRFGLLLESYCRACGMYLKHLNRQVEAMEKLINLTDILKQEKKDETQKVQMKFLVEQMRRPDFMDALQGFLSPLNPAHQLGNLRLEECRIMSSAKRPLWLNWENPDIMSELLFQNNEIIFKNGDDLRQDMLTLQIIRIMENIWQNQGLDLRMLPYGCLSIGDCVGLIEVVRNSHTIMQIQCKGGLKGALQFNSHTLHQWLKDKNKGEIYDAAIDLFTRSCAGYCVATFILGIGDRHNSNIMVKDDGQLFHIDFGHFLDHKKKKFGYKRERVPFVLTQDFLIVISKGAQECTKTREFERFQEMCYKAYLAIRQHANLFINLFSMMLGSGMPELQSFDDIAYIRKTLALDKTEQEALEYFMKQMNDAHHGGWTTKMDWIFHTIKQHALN
Sequence of PI3Kα (P27986 whole entry partner, species assumed): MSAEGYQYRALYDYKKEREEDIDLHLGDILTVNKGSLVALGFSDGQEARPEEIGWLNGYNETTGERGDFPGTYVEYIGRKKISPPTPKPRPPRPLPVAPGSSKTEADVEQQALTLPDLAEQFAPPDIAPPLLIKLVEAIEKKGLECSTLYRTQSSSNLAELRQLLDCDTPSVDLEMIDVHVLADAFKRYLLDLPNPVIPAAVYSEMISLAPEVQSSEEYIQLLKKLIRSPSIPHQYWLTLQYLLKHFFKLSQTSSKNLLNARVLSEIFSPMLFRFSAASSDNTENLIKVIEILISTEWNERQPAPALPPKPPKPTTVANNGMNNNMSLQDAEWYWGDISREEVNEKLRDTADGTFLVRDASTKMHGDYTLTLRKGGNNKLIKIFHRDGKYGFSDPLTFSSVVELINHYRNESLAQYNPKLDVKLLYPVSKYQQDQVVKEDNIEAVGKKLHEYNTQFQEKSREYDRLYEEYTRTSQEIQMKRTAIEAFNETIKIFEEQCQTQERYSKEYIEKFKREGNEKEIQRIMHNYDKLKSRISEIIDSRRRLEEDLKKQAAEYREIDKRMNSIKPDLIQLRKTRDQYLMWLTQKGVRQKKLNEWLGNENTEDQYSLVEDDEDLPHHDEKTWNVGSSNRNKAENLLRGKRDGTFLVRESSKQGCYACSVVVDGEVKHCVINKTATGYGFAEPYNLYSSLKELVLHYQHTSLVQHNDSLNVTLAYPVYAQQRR

SMILES: Cc1nc2ccc(-c3ccc4c(c3)CN(c3ncnc(Cc5ccccc5)c3C)CCO4)cc2[nH]1 [Example 41, 7-(2-methyl-1H-benzimidazol-6-yl)-4-[5-methyl-6-(phenylmethyl)pyrimidin-4-yl]-2,3,4,5-tetrahydro-1,4-benzoxazepine]
- IC50 [1]: 250 to 1000 nM
- IC50 [2]: 1000 to 2000 nM

SMILES: Cc1nc2ccc(-c3ccc4c(c3)CN(c3ncnc5[nH]ncc35)CCO4)cc2[nH]1 [Example 52, 7-(2-methyl-1H-benzimidazol-6-yl)-4-(1H-pyrazolo[3,4-d]pyrimidin-4-yl)-2,3,4,5-tetrahydro-1,4-benzoxazepine]
- IC50 [1]: 1000 to 2000 nM
- IC50 [2]: ≥ 2000 nM

SMILES: Cc1nc2ccc(-c3ccc4c(c3)CN(c3nc(SCc5ccccc5)nc5c3CCC5)CCO4)cc2[nH]1 [Example 53, 7-(2-methyl-1H-benzimidazol-6-yl)-4-{2-[(phenylmethyl)thio]-6,7-dihydro-5H-cyclopenta[d]pyrimidin-4-yl}-2,3,4,5-tetrahydro-1,4-benzoxazepine]
- IC50 [1]: 250 to 1000 nM
- IC50 [2]: ≥ 2000 nM

SMILES: Cc1nc2ccc(-c3ccc4c(c3)CN(c3ncnc(C)c3CC(C)C)CCO4)cc2[nH]1 [Example 67, 7-(2-methyl-1H-benzimidazol-6-yl)-4-[6-methyl-5-(2-methylpropyl)pyrimidin-4-yl]-2,3,4,5-tetrahydro-1,4-benzoxazepine]
- IC50 [1]: 250 to 1000 nM
- IC50 [2]: 1000 to 2000 nM

SMILES: COCCOC(=O)Nc1nc2ccc(-c3ccc4c(c3)CN(c3ccnc5ccccc35)CCO4)cc2[nH]1 [Example 118, 2-(methyloxy)ethyl [6-(4-quinolin-4-yl-2,3,4,5-tetrahydro-1,4-benzoxazepin-7-yl)-1H-benzimidazol-2-yl]carbamate]
- IC50 [2]: 1000 to 2000 nM

SMILES: Cn1ncc2cc(-c3ccc4c(c3)CN(c3ccnc5ccccc35)CCO4)ccc21 [Example 139, 7-(1-methyl-1H-indazol-5-yl)-4-quinolin-4-yl-2,3,4,5-tetrahydro-1,4-benzoxazepine]
- IC50 [2]: 1000 to 2000 nM

SMILES: CNC(=O)c1cccc(-c2ccc3c(c2)CN(c2nc(C)nc4cc(OC)ccc24)CCO3)c1 [Example 644, N-methyl-3-{4-[2-methyl-7-(methyloxy)quinazolin-4-yl]-2,3,4,5-tetrahydro-1,4-benzoxazepin-7-yl}benzamide]
- IC50 [2]: ≥ 2000 nM

SMILES: CC[C@H]1CCc2c(nc(C)nc2N2CCOc3ccc(-c4cnc5nc([C@H](C)NC(=O)OCc6ccccc6)[nH]c5c4)cc3C2)C1 [Example 646, phenylmethyl [(1S)-1-(6-{4-[(7S)-7-ethyl-2-methyl-5,6,7,8-tetrahydroquinazolin-4-yl]-2,3,4,5-tetrahydro-1,4-benzoxazepin-7-yl}-1H-imidazo[4,5-b]pyridin-2-yl)ethyl]carbamate]
- IC50 [2]: 1000 to 2000 nM

SMILES: Cc1nc(N)nc(N2CCOc3ccc(-c4cnc5[nH]cnc5c4)cc3C2)c1Cc1ccc(F)cc1 [Example 689, 5-[(4-fluorophenyl)methyl]-4-[7-(3H-imidazo[4,5-b]pyridin-6-yl)-2,3-dihydro-1,4-benzoxazepin-4(5H)-yl]-6-methylpyrimidin-2-amine]
- IC50 [1]: ≤ 10 nM

SMILES: Cc1nc2cc(-c3ccc4c(c3)CN(c3nc(N)nc(C)c3Cc3ccc(F)cc3)CCO4)cnc2[nH]1 [Example 690, 5-[(4-fluorophenyl)methyl]-4-methyl-6-[7-(2-methyl-3H-imidazo[4,5-b]pyridin-6-yl)-2,3-dihydro-1,4-benzoxazepin-4(5H)-yl]pyrimidin-2-amine]
- IC50 [1]: ≤ 10 nM

SMILES: COc1ccc2c(N3CCOc4ccc(-c5cnc6[nH]cnc6c5)cc4C3)nc(CN(C)C)nc2c1 [Example 691, 1-{4-[7-(3H-imidazo[4,5-b]pyridin-6-yl)-2,3-dihydro-1,4-benzoxazepin-4(5H)-yl]-7-(methyloxy)quinazolin-2-yl}-N,N-dimethylmethanamine]
- IC50 [1]: 1000 to 2000 nM

SMILES: Cc1nc(N)nc(N2CCOc3ccc(-c4cnc5sc(N)nc5c4)cc3C2)c1Cc1ccc(F)cc1 [Example 692, 6-(4-{2-amino-5-[(4-fluorophenyl)methyl]-6-methylpyrimidin-4-yl}-2,3,4,5-tetrahydro-1,4-benzoxazepin-7-yl)[1,3]thiazolo[5,4-b]pyridin-2-amine]
- IC50 [1]: ≤ 10 nM

Source: US8648066B2 (Exelixis, Inc., priority 2009, dated 2014)
